Earlier results as cited in US11306114B2, “Process for separation, isolation and characterization of steviol glycosides” (Heartland Consumer Products, LLC, priority 2014, dated 2022).
Like-named read-outs stand apart in the source and are kept apart here.

How the values were obtained:
[1] = for Sweetness Intensity: relative to an equal weight of sucrose, data from Tanaka, Pure & Appl. Chem.
[2] = subjective relative ranking; data from Tanaka, Pure & Appl. Chem.
[3] = carbonated beverages (Chang et al. 1983) / general statement
[4] = literature statements

Row | heat and pH stability [3] | Compound | Sweetness Intensity [1] | Sweetness Quality [2] | taste attributes [4] | taste attributes ([4]; listed as Rebaudioside A) | taste attributes ([4]; listed as rebaudioside A) | times sweeter than sucrose ([1]; general statements in text, varies with temperature and viscosity of the carrier medium)
1 | heat and pH stability | C=C1C[C@@]23CC[C@H]4[C@@](C)(CCC[C@@]4(C)C(=O)O[C@@H]4O[C@H](CO)[C@@H](O)[C@H](O)[C@H]4O)[C@@H]2CC[C@]1(O[C@@H]1O[C@H](CO)[C@@H](O)[C@H](O)[C@H]1O[C@@H]1O[C@H](CO)[C@@H](O)[C@H](O)[C@H]1O)C3 [stevioside, 13-[(2-O-β-D-glucopyranosyl-α-D-glucopyranosyl)oxy]-kaur-16-en-18-oic acid β-D-glucopyranosyl ester] | 145 | 0 | metallic and bitter notes |  |  | 
2 |  | C=C1C[C@@]23CC[C@H]4[C@@](C)(CCC[C@@]4(C)C(=O)O)[C@@H]2CC[C@]1(O[C@@H]1O[C@H](CO)[C@@H](O)[C@H](O)[C@H]1O[C@@H]1O[C@H](CO)[C@@H](O)[C@H](O)[C@H]1O)C3 [steviolbioside] | 40 | −3 |  |  |  | 
3 | heat and pH stability | C=C1C[C@@]23CC[C@H]4[C@@](C)(CCC[C@@]4(C)C(=O)O[C@@H]4O[C@H](CO)[C@@H](O)[C@H](O)[C@H]4O)[C@@H]2CC[C@]1(O[C@@H]1O[C@H](CO)[C@@H](O)[C@H](O[C@@H]2O[C@H](CO)[C@@H](O)[C@H](O)[C@H]2O)[C@H]1O[C@@H]1O[C@H](CO)[C@@H](O)[C@H](O)[C@H]1O)C3 [rebaudioside-A, rebaudioside A] | 250 | 2 |  | the least astringent, the least bitter, and the least persistent aftertaste | metallic and bitter notes | 
4 |  | C=C1C[C@@]23CC[C@H]4[C@@](C)(CCC[C@@]4(C)C(=O)O[C@@H]4O[C@H](CO)[C@@H](O)[C@H](O)[C@H]4O[C@@H]4O[C@H](CO)[C@@H](O)[C@H](O)[C@H]4O)[C@@H]2CC[C@]1(O[C@@H]1O[C@H](CO)[C@@H](O)[C@H](O[C@@H]2O[C@H](CO)[C@@H](O)[C@H](O)[C@H]2O)[C@H]1O[C@@H]1O[C@H](CO)[C@@H](O)[C@H](O)[C@H]1O)C3 [rebaudioside-D, rebaudioside D] | 300 | 3 |  |  |  | 
5 |  | C=C1C[C@@]23CC[C@H]4[C@@](C)(CCC[C@@]4(C)C(=O)O[C@@H]4O[C@H](CO)[C@@H](O)[C@H](O)[C@H]4O)[C@@H]2CC[C@]1(O[C@@H]1O[C@H](CO)[C@@H](O)[C@H](O)[C@H]1O[C@@H]1O[C@@H](C)[C@H](O)[C@@H](O)[C@H]1O)C3 [dulcoside-A, dulcoside A] | 70 | −2 |  |  |  | about 30 times
6 |  | rebaudioside C [rebaudioside-C] | 200 | −1 |  |  |  | 
7 |  | C=C1C[C@@]23CC[C@H]4[C@@](C)(CCC[C@@]4(C)C(=O)O)[C@@H]2CC[C@]1(O[C@@H]1O[C@H](CO)[C@@H](O)[C@H](O)[C@H]1O)C3 [steviolmonoside] | 40 | −3 |  |  |  | 
8 |  | C=C1C[C@@]23CC[C@H]4[C@@](C)(CCC[C@@]4(C)C(=O)O[C@@H]4O[C@H](CO)[C@@H](O)[C@H](O)[C@H]4O)[C@@H]2CC[C@]1(O[C@@H]1O[C@H](CO)[C@@H](O)[C@H](O)[C@H]1O)C3 [rubusoside] | 115 | −2 |  |  |  | 
9 |  | rebaudioside B | 300 | 3 |  |  |  | 
10 |  | C=C1C[C@@]23CC[C@H]4[C@@](C)(CCC[C@@]4(C)C(=O)O[C@@H]4O[C@H](CO)[C@@H](O)[C@H](O)[C@H]4O[C@@H]4O[C@H](CO)[C@@H](O)[C@H](O)[C@H]4O)[C@@H]2CC[C@]1(O[C@@H]1O[C@H](CO)[C@@H](O)[C@H](O)[C@H]1O[C@@H]1O[C@H](CO)[C@@H](O)[C@H](O)[C@H]1O)C3 [rebaudioside-E, rebaudioside E] | 200 | 1 |  |  |  | 
